Test results: patent US12714706B2, “Methods of treating small cell lung cancer with lurbinectedin formulations” (PHARMA MAR, S.A., priority 2019, dated 2026)
Like-named read-outs stand apart in the source and are kept apart here.

Assays:
[1] = system: SCLC patients; test: Phase 2 trial of lurbinectedin monotherapy in SCLC: safety evaluation (NCI-CTCAE v4); type: in vivo, human
Description: Patients were evaluated for safety if they had received any partial or complete infusion of lurbinectedin. All adverse events were graded according to the National Cancer Institute-Common Toxicity Criteria for Adverse Events (NCI-CTCAE, v4). The safety profile of patients was monitored throughout the treatment and up to 30 days after the last lurbinectedin infusion (end of treatment), or until the patient started a new anti-tumor therapy or until the date of death, whichever occurred first. Treatment delays, dose reduction requirements, transfusions, and reason for treatment discontinuation was monitored throughout the study. Any treatment-related adverse events were followed until recovery to at least grade 1 or stabilization of symptoms or until the start of a new anti-tumor therapy, whichever occurred first.

[2] = system: SCLC; test: Phase 2 trial of lurbinectedin monotherapy in SCLC: antitumor activity (ORR, DOR, PFS, OS; RECIST v1.1); type: in vivo, human
[3] = lurbinectedin single agent 3.2 mg/m2 (ref); n=329; mean (SD); cited from earlier work
[4] = Lurbinectedin plus irinotecan trial: pharmacokinetics of lurbinectedin, irinotecan and SN-38; settings: combination: lurbinectedin 1.0-2.4 mg/m2 + irinotecan 75 mg/m2; n=39; mean (SD)
[5] = 105 SCLC patients, 3.2 mg/m^2 q3wk
[6] = biochemical abnormality regardless of relation to study drug, patients with laboratory data, NCI-CTCAE v4.0, SCLC
[7] = haematological abnormality regardless of relation to study drug, NCI-CTCAE v4.0, 105 treated SCLC patients
[8] = treatment-related adverse event, NCI-CTCAE v4.0, 105 treated SCLC patients
[9] = Sodium acetate pH 3, 25°C/60% RH
[10] = Sodium acetate pH 3, 14 d 25°C/60% RH
[11] = Sodium acetate pH 4, 25°C/60% RH
[12] = Sodium acetate pH 4, 14 d 25°C/60% RH
[13] = Sodium acetate pH 5, 25°C/60% RH
[14] = Sodium acetate pH 5, 14 d 25°C/60% RH
[15] = Sodium citrate pH 3, 25°C/60% RH
[16] = Sodium citrate pH 3, 14 d 25°C/60% RH
[17] = Sodium citrate pH 4, 25°C/60% RH
[18] = Sodium citrate pH 4, 14 d 25°C/60% RH
[19] = Sodium citrate pH 5, 25°C/60% RH
[20] = Sodium citrate pH 5, 14 d 25°C/60% RH
[21] = Sodium lactate pH 3, 25°C/60% RH
[22] = Sodium lactate pH 3, 14 d 25°C/60% RH
[23] = Sodium lactate pH 4, 25°C/60% RH
[24] = Sodium lactate pH 4, 14 d 25°C/60% RH
[25] = Sodium lactate pH 5, 25°C/60% RH
[26] = Sodium lactate pH 5, 14 d 25°C/60% RH
[27] = Sodium succinate pH 3, 25°C/60% RH
[28] = Sodium succinate pH 3, 14 d 25°C/60% RH
[29] = Sodium succinate pH 4, 25°C/60% RH
[30] = Sodium succinate pH 4, 14 d 25°C/60% RH
[31] = Sodium succinate pH 5, 25°C/60% RH
[32] = Sodium succinate pH 5, 14 d 25°C/60% RH
[33] = chemotherapy-free interval 90 days or longer (sensitive)

COc1ccc2[nH]c3c(c2c1)CCN[C@]31CS[C@@H]2c3c(OC(C)=O)c(C)c4c(c3[C@H](COC1=O)N1[C@@H]2[C@H]2c3c(cc(C)c(OC)c3O)C[C@@H]([C@@H]1O)N2C)OCO4 [lurbinectedin, Lurbinectedin]
Patients with dose delays caused by neutropenia ([1]; 105 SCLC patients): 12% | Patients with dose reductions caused by neutropenia ([1]; 105 SCLC patients): 16% | Patients with dose administration delayed because of treatment-related adverse events [1, 5]: 22% | Patients with dose reduced because of treatment-related adverse events [1, 5]: 26% | Discontinuation because of treatment-related adverse events ([1]; 105 treated patients): 2% | Drug-induced liver injury ([1]; 105 treated patients): no cases | Grade 3-4 anemia ([1]; 105 treated patients): 9% | Grade 3-4 febrile neutropenia ([1]; 105 treated patients): 5% | Grade 3-4 leukopenia ([1]; 105 treated patients): 29% | Grade 3-4 neutropenia ([1]; 105 treated patients): 46% | Grade 3-4 thrombocytopenia ([1]; 105 treated patients): 7% | Grade 3 pneumonia ([1]; 105 treated patients): 2% | Patients who received G-CSF secondary prophylaxis or therapy for neutropenia ([1]; 105 treated patients): 22% | Serious treatment-related adverse events ([1]; 105 treated patients): 10% | Serious treatment-related febrile neutropenia ([1]; 105 treated patients): 5% | Serious treatment-related neutropenia ([1]; 105 treated patients): 5% | Treatment-related deaths ([1]; 105 treated patients): No treatment-related deaths | Alanine aminotransferase, Grade 4 [1, 6]: 0 n (%) of patients | Alkaline phosphatase, Grade 4 [1, 6]: 0 n (%) of patients | Aspartate aminotransferase, Grade 4 [1, 6]: 0 n (%) of patients | Creatinine, Grade 3 [1, 6]: 0 n (%) of patients | Creatinine, Grade 4 [1, 6]: 0 n (%) of patients | Anaemia, Grade 1-2 [1, 7]: 91 (87%) n (%) of patients | Anaemia, Grade 3 [1, 7]: 9 (9%) n (%) of patients | Anaemia, Grade 4 [1, 7]: 0 n (%) of patients | Leucopenia, Grade 1-2 [1, 7]: 53 (50%) n (%) of patients | Leucopenia, Grade 3 [1, 7]: 20 (19%) n (%) of patients | Leucopenia, Grade 4 [1, 7]: 10 (10%) n (%) of patients | Neutropenia, Grade 1-2 [1, 7]: 27 (26%) n (%) of patients | Neutropenia, Grade 3 [1, 7]: 22 (21%) n (%) of patients | Neutropenia, Grade 4 [1, 7]: 26 (25%) n (%) of patients | Thrombocytopenia, Grade 1-2 [1, 7]: 39 (37%) n (%) of patients | Thrombocytopenia, Grade 3 [1, 7]: 3 (3%) n (%) of patients | Thrombocytopenia, Grade 4 [1, 7]: 4 (4%) n (%) of patients | Decreased appetite, Grade 1-2 [1, 8]: 22 (21%) n (%) of patients | Decreased appetite, Grade 3 [1, 8]: 0 n (%) of patients | Decreased appetite, Grade 4 [1, 8]: 0 n (%) of patients | Diarrhoea, Grade 1-2 [1, 8]: 13 (14%) n (%) of patients | Diarrhoea, Grade 3 [1, 8]: 1 (1%) n (%) of patients | Diarrhoea, Grade 4 [1, 8]: 0 n (%) of patients | Fatigue, Grade 1-2 [1, 8]: 54 (51%) n (%) of patients | Fatigue, Grade 3 [1, 8]: 7 (7%) n (%) of patients | Fatigue, Grade 4 [1, 8]: 0 n (%) of patients | Febrile neutropenia, Grade 1-2 [1, 8]: 0 n (%) of patients | Febrile neutropenia, Grade 3 [1, 8]: 2 (2%) n (%) of patients | Febrile neutropenia, Grade 4 [1, 8]: 3 (3%) n (%) of patients | Nausea, Grade 1-2 [1, 8]: 34 (32%) n (%) of patients | Nausea, Grade 3 [1, 8]: 0 n (%) of patients | Nausea, Grade 4 [1, 8]: 0 n (%) of patients | Pneumonia, Grade 1-2 [1, 8]: 0 n (%) of patients | Pneumonia, Grade 3 [1, 8]: 2 (2%) n (%) of patients | Pneumonia, Grade 4 [1, 8]: 0 n (%) of patients | Skin ulcer, Grade 1-2 [1, 8]: 0 n (%) of patients | Skin ulcer, Grade 3 [1, 8]: 1 (1%) n (%) of patients | Skin ulcer, Grade 4 [1, 8]: 0 n (%) of patients | Vomiting, Grade 1-2 [1, 8]: 19 (18%) n (%) of patients | Vomiting, Grade 3 [1, 8]: 0 n (%) of patients | Vomiting, Grade 4 [1, 8]: 0 n (%) of patients | Concentration t = 0 h (Sodium acetate pH 3): 950 µg/mL | Purity t = 0 h (Sodium acetate pH 3): 99.2% | Concentration t = 14 d [9]: 880 µg/mL | Purity t = 14 d [9]: 98.0% | Concentration decrease [10]: 6.8% | Degradation [10]: 1.2% | Concentration t = 0 h (Sodium acetate pH 4): 940 µg/mL | Purity t = 0 h (Sodium acetate pH 4): 99.2% | Concentration t = 14 d [11]: 890 µg/mL | Purity t = 14 d [11]: 98.0% | Concentration decrease [12]: 5.7% | Degradation [12]: 1.2% | Concentration t = 0 h (Sodium acetate pH 5): 30 µg/mL | Purity t = 0 h (Sodium acetate pH 5): 95.4% | Concentration t = 14 d [13]: 30 µg/mL | Purity t = 14 d [13]: 93.7% | Concentration decrease [14]: 8.2% | Degradation [14]: 1.7% | Concentration t = 0 h (Sodium citrate pH 3): 940 µg/mL | Purity t = 0 h (Sodium citrate pH 3): 99.4% | Concentration t = 14 d [15]: 920 µg/mL | Purity t = 14 d [15]: 97.9% | Concentration decrease [16]: 1.2% | Degradation [16]: 1.6% | Concentration t = 0 h (Sodium citrate pH 4): 930 µg/mL | Purity t = 0 h (Sodium citrate pH 4): 99.4% | Concentration t = 14 d [17]: 880 µg/mL | Purity t = 14 d [17]: 96.2% | Concentration decrease [18]: 6.0% | Degradation [18]: 3.2% | Concentration t = 0 h (Sodium citrate pH 5): 500 µg/mL | Purity t = 0 h (Sodium citrate pH 5): 99.3% | Concentration t = 14 d [19]: 110 µg/mL | Purity t = 14 d [19]: 95.0% | Concentration decrease [20]: 78.5% | Degradation [20]: 4.3% | Concentration t = 0 h (Sodium lactate pH 3): 940 µg/mL | Purity t = 0 h (Sodium lactate pH 3): 99.3% | Concentration t = 14 d [21]: 930 µg/mL | Purity t = 14 d [21]: 98.6% | Concentration decrease [22]: 0.9% | Degradation [22]: 0.7% | Concentration t = 0 h (Sodium lactate pH 4): 900 µg/mL | Purity t = 0 h (Sodium lactate pH 4): 99.3% | Concentration t = 14 d [23]: 870 µg/mL | Purity t = 14 d [23]: 97.8% | Concentration decrease [24]: 3.0% | Degradation [24]: 1.5% | Concentration t = 0 h (Sodium lactate pH 5): 30 µg/mL | Purity t = 0 h (Sodium lactate pH 5): 96.5% | Concentration t = 14 d [25]: 30 µg/mL | Purity t = 14 d [25]: 93.9% | Concentration decrease [26]: 6.9% | Degradation [26]: 2.6% | Concentration t = 0 h (Sodium succinate pH 3): 960 µg/mL | Purity t = 0 h (Sodium succinate pH 3): 99.3% | Concentration t = 14 d [27]: 930 µg/mL | Purity t = 14 d [27]: 97.7% | Concentration decrease [28]: 3.2% | Degradation [28]: 1.5% | Concentration t = 0 h (Sodium succinate pH 4): 970 µg/mL | Purity t = 0 h (Sodium succinate pH 4): 99.2% | Concentration t = 14 d [29]: 890 µg/mL | Purity t = 14 d [29]: 96.8% | Concentration decrease [30]: 7.6% | Degradation [30]: 2.4% | Concentration t = 0 h (Sodium succinate pH 5): 40 µg/mL | Purity t = 0 h (Sodium succinate pH 5): 95.9% | Concentration t = 14 d [31]: 30 µg/mL | Purity t = 14 d [31]: 94.2% | Concentration decrease [32]: 8.1% | Degradation [32]: 1.8% | Overall response rate (CR + PR) ([2]; IRC assessment, overall (n = 105)): 30.5% | Duration of response, median ([2]; IRC assessment, resistant disease (CTFI <90 days)): 4.8 months | Overall response rate (CR + PR) ([2]; IRC assessment, resistant disease (CTFI <90 days, n = 45)): 13.3% | Duration of response, median ([2]; IRC assessment, sensitive disease (CTFI ≥90 days)): 5.3 months | Overall response rate (CR + PR) ([2]; IRC assessment, sensitive disease (CTFI ≥90 days, n = 60)): 43.3% | Duration of response, median ([2]; Investigator assessment, overall): 5.3 months | Duration of response, median ([2]; Investigator assessment, resistant disease (CTFI <90 days)): 4.7 months | Duration of response, median ([2]; Investigator assessment, sensitive disease (CTFI ≥90 days)): 6.2 months | Overall response rate (CR + PR) ([2]; Investigator assessment, sensitive disease (CTFI ≥90 days, n = 60)): 45.0% | Median progression-free survival ([2]; Investigator-assessed, overall population): 3.5 months | Patients alive at 1 year after the first dose ([2]; chemotherapy-free interval 90 days or longer (n = 60)): 48% | Median overall survival [2, 33]: 11.9 months | Median progression-free survival [2, 33]: 4.6 months | Median overall survival ([2]; overall population): 9.3 months | Median overall survival of patients with initial objective response (post-hoc) ([2]; responders with sensitive disease): 15.8 months | CL [3]: 12.4 (7.6) L/h | Cmax [3]: 127.5 (100.2) ug/L | HL [3]: 42.6 (38.4) h | Vz [3]: 664.7 (460.3) L | HL [4]: 44.2 (22.4) h
